pEC50, pIC50, pKi: −log10 of the molar value. Several values for one entry are separate records, joined by “and”; a condition that tells them apart may be missing. Identical values can stand only once.
Assays:
5-HT2A = 5-HT2A (Homo sapiens, UniProt P28223); test: Gq-mediated calcium flux assay, Flp-In 293 T-Rex inducible cells (agonist and antagonist mode); assay type: cell-based; parameters: expressed in transfected cells
human Nav1.1 and Navβ1 = human Nav1.1 and Navβ1 (Homo sapiens, UniProt P35498); test: cell-based; conditions: for Peak INa Density @ −20 mV: I-V curve
5-HT2B = 5-HT2B (Homo sapiens, UniProt P41595); test: Gq-mediated calcium flux assay, Flp-In 293 T-Rex inducible cells (agonist and antagonist mode); assay type: cell-based; parameters: expressed in transfected cells
Sequence of 5-HT2B (P41595 whole entry): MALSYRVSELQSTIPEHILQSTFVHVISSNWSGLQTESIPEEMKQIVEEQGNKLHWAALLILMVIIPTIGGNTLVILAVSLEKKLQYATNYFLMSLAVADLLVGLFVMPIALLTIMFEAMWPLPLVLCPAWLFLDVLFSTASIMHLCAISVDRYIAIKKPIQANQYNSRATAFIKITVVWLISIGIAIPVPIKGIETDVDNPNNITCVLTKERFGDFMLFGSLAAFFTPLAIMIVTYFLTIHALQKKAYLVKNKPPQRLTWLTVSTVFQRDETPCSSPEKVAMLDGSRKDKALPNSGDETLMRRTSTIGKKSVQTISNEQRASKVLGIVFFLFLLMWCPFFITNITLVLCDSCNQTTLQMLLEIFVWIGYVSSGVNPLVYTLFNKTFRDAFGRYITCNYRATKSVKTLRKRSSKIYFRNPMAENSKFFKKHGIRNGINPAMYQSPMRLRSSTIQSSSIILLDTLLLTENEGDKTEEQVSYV

human 5-HT2C receptor = target: T1, human 5-HT2C receptor (Homo sapiens, UniProt P28335); test: as above; assay type: cell-based
T1 construct: expressed in transfected cells
T1 sequence (P28335 33-458): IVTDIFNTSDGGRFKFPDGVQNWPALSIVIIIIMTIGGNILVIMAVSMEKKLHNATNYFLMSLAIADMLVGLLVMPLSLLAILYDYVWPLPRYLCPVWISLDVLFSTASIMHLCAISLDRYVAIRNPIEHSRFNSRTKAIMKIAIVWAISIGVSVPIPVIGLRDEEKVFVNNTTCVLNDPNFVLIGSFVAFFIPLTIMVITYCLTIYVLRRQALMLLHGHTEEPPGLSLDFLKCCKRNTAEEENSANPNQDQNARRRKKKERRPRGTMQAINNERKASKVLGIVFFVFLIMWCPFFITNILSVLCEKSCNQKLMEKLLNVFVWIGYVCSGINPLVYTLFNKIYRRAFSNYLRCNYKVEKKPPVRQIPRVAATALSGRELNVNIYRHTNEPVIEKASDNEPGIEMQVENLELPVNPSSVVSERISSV

[1] = Chance observation of local anesthetic effect upon contact with mucous membranes; assay type: in vivo
HiBiT-5-HT2A [2] = target: T2, HiBiT-5-HT2A (Homo sapiens, UniProt P28223); test: NanoBRET Target Engagement competitive displacement of […], HiBiT-5-HT2A transiently expressed in HEK293 cells; conditions: equilibrium competitive displacement, Cheng-Prusoff; read-out: KI (binding affinity) at 5-HT2A
T2 construct: expressed in transfected cells; host or cells: HEK293 (transient)
T2 sequence (P28223 whole entry): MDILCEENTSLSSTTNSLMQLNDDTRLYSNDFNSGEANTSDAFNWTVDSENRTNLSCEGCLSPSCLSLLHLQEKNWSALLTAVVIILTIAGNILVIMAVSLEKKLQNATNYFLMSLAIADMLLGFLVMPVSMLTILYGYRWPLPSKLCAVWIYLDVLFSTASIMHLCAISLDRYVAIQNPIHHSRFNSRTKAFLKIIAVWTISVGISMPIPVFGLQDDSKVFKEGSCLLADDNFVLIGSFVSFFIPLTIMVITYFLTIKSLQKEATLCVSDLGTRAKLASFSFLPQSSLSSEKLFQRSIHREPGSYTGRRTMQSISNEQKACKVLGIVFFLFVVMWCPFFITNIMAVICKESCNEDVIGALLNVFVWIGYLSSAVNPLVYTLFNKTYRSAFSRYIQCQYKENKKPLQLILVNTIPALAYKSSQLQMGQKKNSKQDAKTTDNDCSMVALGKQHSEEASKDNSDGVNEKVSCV

human Nav1.1 = human Nav1.1 (Homo sapiens, UniProt P35498); test: Manual whole-cell patch clamp sodium current recording, HEK cells stably expressing human Nav1.1; assay type: cell-based; conditions: 10 μM
Description: Cell lines: Human Embryonic Kidney (HEK) 293 cells stably expressing human VGSC a subunit Nav1.1 (GenBank accession number NP_008851.3) were a gift from Dr. Massimo Mantegazza. Human VGSC β1 subunit GenBank accession number NP_001028.1) cDNA was transfected into this line to generate a second, stable line. Cells were cultured in Dulbecco's Modified Eagle Medium containing (4.5 g/L D-glucose, L-glutamine, 110 mg/L sodium pyruvate, 200 μg/mL G418, 100 U/mL penicillin/streptomycin). All cells were maintained in an incubator at 37° C. with 5% CO2.
Manual Sodium Current Recording: Sodium current (INa) was measured at room temperature using the manual whole-cell patch clamp technique with previously described electrophysiological methods (Chen et al., J Biol Chem., 2012; 287 (46): 39061-39069). Cells were plated on 12 mm diameter clear glass poly-D-lysine coated coverslips (Neuvitro) and used for electrophysiological recordings within 48 hours after plating. Cells were identified with an AIR upright confocal microscope (Nikon). […] Data were acquired with a Digidata 1440A interface (Molecular Devices) and analyzed using pClamp10 offline. […] All manual whole-cell INa recorded under XOB conditions was conducted after 3.9 minutes of perfusion unless indicated otherwise.

HiBiT-5-HT2A [3] = target: T2, HiBiT-5-HT2A; test: NanoBRET kinetic measurement of ligand binding to HiBiT-5-HT2A (Motulsky-Mahan)
[4] = antagonist mode, concentrations up to 10 μM

Sequence of 5-HT2A (P28223 whole entry): as above

COc1cc(CCNCCCCCCOCCCCc2ccccc2)c(OC)cc1Br [XOB, N-(4-bromo-2,5-dimethoxyphenethyl)-6-(4-phenylbutoxy)hexan-1-amine]
agonist activity at 5-HT2A (5-HT2A; agonist mode, up to 10 μM): little to no measurable agonist activity | pIC50 (5-HT2A; antagonist mode, 3.2 nM 5-HT, read-out: IC50, antagonism at 5-HT2A): 5.89 | pEC50 (5-HT2A; antagonist mode, read-out: EC50, antagonizes 5-HT2A): 5.89 | Bottom of concentration response curve (normalized peak INa inhibition) (human Nav1.1 and Navβ1): 0.02 | Hill Slope of concentration response curve on peak INa (human Nav1.1 and Navβ1): 1.45 | Top of concentration response curve (normalized peak INa inhibition) (human Nav1.1 and Navβ1): 0.88 | effect on voltage-dependence of sodium conductance (human Nav1.1 and Navβ1): no effect was observed | Normalized Peak INa Inhibition (human Nav1.1 and Navβ1; 0.1 nM, peak protocol): −0.077 ± 0.08 | Peak INa Density (human Nav1.1 and Navβ1; 0.1 nM, peak protocol): −429.6 ± 50.7 pA/pF | Peak INa Density @ −20 mV (human Nav1.1 and Navβ1; 1 nM): −395.9 ± 56.0 pA/pF | Normalized Peak INa Inhibition (human Nav1.1 and Navβ1; 1 nM, peak protocol): 0.015 ± 0.03 | Peak INa Density (human Nav1.1 and Navβ1; 1 nM, peak protocol): −386.1 ± 56.6 pA/pF | Peak INa Density @ −20 mV (human Nav1.1 and Navβ1; 10 nM): −319.1 ± 50.5 pA/pF | Normalized Peak INa Inhibition (human Nav1.1 and Navβ1; 10 nM, peak protocol): −0.011 ± 0.03 | Peak INa Density (human Nav1.1 and Navβ1; 10 nM, peak protocol): −311.1 ± 41.7 pA/pF | Peak INa Density @ −20 mV (human Nav1.1 and Navβ1; 100 nM): −258.3 ± 34.1 pA/pF | Normalized Peak INa Inhibition (human Nav1.1 and Navβ1; 100 nM, peak protocol): 0.13 ± 0.02 | Peak INa Density (human Nav1.1 and Navβ1; 100 nM, peak protocol): −276.0 ± 31.0 pA/pF | Peak INa Density @ −20 mV (human Nav1.1 and Navβ1; 300 nM): −235.1 ± 37.9 pA/pF | Normalized Peak INa Inhibition (human Nav1.1 and Navβ1; 300 nM, peak protocol): 0.08 ± 0.06 | Peak INa Density (human Nav1.1 and Navβ1; 300 nM, peak protocol): −259.2 ± 38.0 pA/pF | Peak INa Density @ −20 mV (human Nav1.1 and Navβ1; 500 nM): −269.2 ± 38.8 pA/pF | Normalized Peak INa Inhibition (human Nav1.1 and Navβ1; 500 nM, peak protocol): 0.05 ± 0.07 | Peak INa Density (human Nav1.1 and Navβ1; 500 nM, peak protocol): −284.6 ± 35.2 pA/pF | Peak INa Density @ −20 mV (human Nav1.1 and Navβ1; 1 μM): −320.5 ± 40.0 pA/pF | Normalized Peak INa Inhibition (human Nav1.1 and Navβ1; 1 μM, peak protocol): 0.12 ± 0.03 | Peak INa Density (human Nav1.1 and Navβ1; 1 μM, peak protocol): −319.1 ± 34.5 pA/pF | Activation Slope Factor (human Nav1.1 and Navβ1; 3 μM): 6.18 ± 1.1 mV^−1 | Activation V1/2 (human Nav1.1 and Navβ1; 3 μM): −34.32 ± 1.8 mV | Capacitance (human Nav1.1 and Navβ1; 3 μM): 11.17 ± 1.0 pF | Inactivation Slope Factor (human Nav1.1 and Navβ1; 3 μM): −6.41 ± 0.7 mV^−1 | Inactivation V1/2 (human Nav1.1 and Navβ1; 3 μM): −60.46 ± 1.5 mV | Peak INa Density @ −20 mV (human Nav1.1 and Navβ1; 3 μM): −149.4 ± 22.4 pA/pF | Normalized Peak INa Inhibition (human Nav1.1 and Navβ1; 3 μM, peak protocol): 0.36 ± 0.05 | Peak INa Density (human Nav1.1 and Navβ1; 3 μM, peak protocol): −187.1 ± 23.3 pA/pF | Peak INa Density @ −20 mV (human Nav1.1 and Navβ1; 5 μM): −115.6 ± 20.4 pA/pF | Normalized Peak INa Inhibition (human Nav1.1 and Navβ1; 5 μM, peak protocol): 0.46 ± 0.06 | Peak INa Density (human Nav1.1 and Navβ1; 5 μM, peak protocol): −171.3 ± 22.2 pA/pF | reduction of baseline peak INa (human Nav1.1 and Navβ1; 10 μM): 73±3% | Peak INa Density @ −20 mV (human Nav1.1 and Navβ1; 10 μM, step −120 mV to −20 mV): −17.46±3.1 pA/pF | Peak INa Density (human Nav1.1 and Navβ1; 10 μM, peak protocol): −85.4 ± 12.9 pA/pF | Normalized Peak INa Inhibition (human Nav1.1 and Navβ1; 10 μM, peak protocol, 1−(IDrug÷IReference)): 0.73 ± 0.03 | pIC50 (human Nav1.1 and Navβ1; concentration response curve, peak protocol, read-out: IC50, inhibition of peak INa (VGSC)): 5.37 | agonist activity at 5-HT2B (5-HT2B; agonist mode, up to 10 μM): little to no measurable agonist activity | inhibition of 5-HT-mediated calcium flux at 5-HT2B (5-HT2B; [4]): < 50% | agonist activity at 5-HT2C (human 5-HT2C receptor; agonist mode, up to 10 μM): little to no measurable agonist activity | inhibition of 5-HT-mediated calcium flux at 5-HT2C (human 5-HT2C receptor; [4]): < 50% | local anesthetic effect [1]: profound and long-lasting local anesthetic effect | pKi (HiBiT-5-HT2A [2]): 5.59 and 5.52 to 5.70 | original baseline INa density at 0 mV recovered after washout (human Nav1.1; 10 minutes of washing out): 17.5±3.64% | reduction of mean Nav1.1 peak INa density at 0 mV compared to baseline (human Nav1.1; acute perfusion, three cells): 94.1±1.31% | association rate at 5-HT2A relative to serotonin (in words) (HiBiT-5-HT2A [3]): two orders of magnitude slower | association rate at 5-HT2A, fold slower than serotonin (HiBiT-5-HT2A [3]): about 24 fold
